Results published in BindingDB's records for doi:10.1016/j.bmcl.2016.04.030 (Galecto Biotech, 2016).
pIC50: −log10 of the molar value.

Assays:
[1] = Antagonist activity at P2Y12 receptor in human platelets assessed as inhibition of ADP-induced platelet aggregation by turbidimetric method
[2] = Antagonist activity at P2Y12 receptor in human platelets assessed as inhibition of ADP-induced platelet aggregation by microplate reader analysis

Compound | pIC50 [1] | pIC50 [2]
CCCSc1nc(N)c2ncn([C@@H]3O[C@H](COP(=O)(O)OP(=O)(O)C(Cl)(Cl)P(=O)(O)O)[C@@H](O)[C@H]3O)c2n1 | 8.60 | –
Nc1ncnc2c1ncn2[C@@H]1O[C@H](COP(=O)(O)OP(=O)(O)C(Cl)(Cl)P(=O)(O)O)[C@@H](O)[C@H]1O | 3.50 | –
O=P(O)(OC[C@H]1O[C@@H](n2cnc3c(NCC(F)(F)F)nc(SCCC(F)(F)F)nc32)[C@H](O)[C@@H]1O)OP(=O)(O)C(Cl)(Cl)P(=O)(O)O | 9.10 | –
Nc1ncnc2c1ncn2[C@@H]1O[C@H](CO[P@@](=O)(O)O[P@](=O)(O)OP(=O)(O)O)[C@@H](O)[C@H]1O [ATP] | 3.60 | –
CNc1cc2[nH]c(=O)n(-c3ccc(NC(=O)NS(=O)(=O)c4ccc(Cl)s4)cc3)c(=O)c2cc1F [ELINOGREL] | – | > 5.00
